Results published in patent US20110104055A1, “SUBSTITUTED N-ARYL BENZAMIDES AND RELATED COMPOUNDS FOR TREATMENT OF AMYLOID DISEASES AND SYNUCLEINOPATHIES” (priority 2002, published 2011).

Columns and labels:
Format in all cases: biochemical
α-synuclein fibrils [1] = target: T1, α-synuclein fibrils (Homo sapiens, UniProt P37840); assay: Congo red binding assay, α-synuclein fibrils (Example 12); settings: 3-day incubation
T1 construct: purchased rPeptide
Experimental: (§1) In the Congo red binding assay, the ability of a given test compound to alter amyloid (in this case, α-synuclein) binding to Congo red is quantified. In this assay, α-synuclein and test compounds were incubated for 3 days and then vacuum filtered through a 0.2 μm filter. The amount of α-synuclein retained in the filter was then quantitated following staining of the filter with Congo red. After appropriate washing of the filter, any lowering of the Congo red color on the filter in the presence of the test compound (compared to the Congo red staining of the amyloid protein in the absence of the test compound) was indicative of the test compound's ability to diminish/alter the amount of aggregated and congophilic α-synuclein.
In one study, the ability of α-synuclein fibrils to bind Congo red in the absence or presence of increasing amounts of compounds DC-0051-F1, F2, F3, F4, F5, F6 and EDTA (at α-synuclein:test compound weight ratios of 1:1, 1:0.1, 1:0.01 or 1:0.001) was determined.

Aβ 1-42 fibrils [2] = target: T2, Aβ 1-42 fibrils (Homo sapiens, UniProt P05067); assay: Thioflavin T fluorometry, disruption of pre-formed Aβ 1-42 fibrils (Example 11); settings: 30 μg pre-fibrillized Aβ 1-42, 37° C., 3 days
T2 construct: purchased Bachem Inc
Description: In one study, Thioflavin T fluorometry was used to determine the effects of the compounds, and of EDTA (as a negative control). In this assay Thioflavin T binds specifically to fibrillar amyloid, and this binding produces a fluorescence enhancement at 485 nm that is directly proportional to the amount of amyloid fibrils formed. The higher the fluorescence, the greater the amount of amyloid fibrils formed (Naki et al., Lab. Invest. 65:104-110, 1991; Levine III, Protein Sci. 2:404-410, 1993; Amyloid: Int. J. Exp. Clin. Invest. 2:1-6, 1995).
(§2) Following 3-days of co-incubation, 50 μl of each incubation mixture was transferred into a 96-well microtiter plate containing 150 μl of distilled water and 50 μl of a Thioflavin T solution (i.e. 500 mM Thioflavin T in 250 mM phosphate buffer, pH 6.8). The fluorescence was read at 485 nm (444 nm excitation wavelength) using an ELISA plate fluorometer after subtraction with buffer alone or compound alone, as blank.

α-synuclein fibrils [3] = target: T1, α-synuclein fibrils; assay: Thioflavin T fluorometry, disruption of pre-formed α-synuclein fibrils (Example 12); settings: 3 days; for disruption/disassembly of pre-formed α-synuclein fibrils, in words: Thioflavin T fluorometry, all concentrations tested; for % Inhibition α-synuclein (result ± S.D.), Thioflavin T fluorometry: 30 μg pre-fibrillized α-synuclein, 37° C.
Experimental: In this assay, Thioflavin T binds specifically to α-synuclein fibrils, and this binding produces a fluorescence enhancement at 485 nm that is directly proportional to the amount of α-synuclein fibrils present. The higher the fluorescence, the greater the amount of α-synuclein fibrils present (Naki et al, Lab. Invest. 65:104-110, 1991; Levine III, Protein Sci. 2:404-410, 1993; Amyloid: Int. J. Exp. Clin. Invest. 2:1-6, 1995).
as §2, with “In this study, 30 μg of pre-fibrillized α-synuclein (rPeptide) was incubated at 37° C. for 3 days either alone or in the presence of compounds DC-0051-F1, F2, F3, F4, F5, F6 or EDTA (at α-synuclein:test compound weight ratios of 1:1, 1:0.1, 1:0.01 or 1:0.001). Following” for “Following”

Aβ 1-42 fibrils [4] = target: T2, Aβ 1-42 fibrils; assay: Congo red binding assay, Aβ 1-42 fibrils (Example 11); settings: 3-day incubation
Experimental: as §1, with “a” for “a given”, “Aβ)” for “α-synuclein)”, “Aβ 1-42” for “α-synuclein”, “Aβ.” for “α-synuclein.”
In one study, the ability of Aβ fibrils to bind Congo red in the absence or presence of increasing amounts of the compounds or EDTA (at Aβ:test compound weight ratios of 1:1, 1:0.1, 1:0.01 or 1:0.001) was determined.

[5] = α-synuclein:test compound wt/wt ratio 1:0.001
[6] = α-synuclein:test compound wt/wt ratio 1:0.01
[7] = α-synuclein:test compound wt/wt ratio 1:0.1
[8] = α-synuclein:test compound wt/wt ratio 1:1
[9] = Aβ:test compound wt/wt ratio 1:0.001
[10] = Aβ:test compound wt/wt ratio 1:0.01
[11] = Aβ:test compound wt/wt ratio 1:0.1
[12] = Aβ:test compound wt/wt ratio 1:1

T2 sequence (P05067 672-713): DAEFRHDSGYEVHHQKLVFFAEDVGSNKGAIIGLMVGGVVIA

Structure (SMILES) | % Inhibition α-synuclein (result ± S.D.), Congo red binding (α-synuclein fibrils [1]; [5]) [%] | % Inhibition α-synuclein (result ± S.D.), Congo red binding (α-synuclein fibrils [1]; [6]) [%] | % Inhibition α-synuclein (result ± S.D.), Congo red binding (α-synuclein fibrils [1]; [7]) [%] | % Inhibition α-synuclein (result ± S.D.), Congo red binding (α-synuclein fibrils [1]; [8]) [%] | % Inhibition Aβ (result ± S.D.), Thioflavin T fluorometry (Aβ 1-42 fibrils [2]; [9]) [%] | % Inhibition Aβ (result ± S.D.), Thioflavin T fluorometry (Aβ 1-42 fibrils [2]; [10]) [%] | % Inhibition Aβ (result ± S.D.), Thioflavin T fluorometry (Aβ 1-42 fibrils [2]; [11]) [%] | % Inhibition Aβ (result ± S.D.), Thioflavin T fluorometry (Aβ 1-42 fibrils [2]; [12]) [%] | disruption/disassembly of pre-formed α-synuclein fibrils, in words (α-synuclein fibrils [3]) | % Inhibition α-synuclein (result ± S.D.), Thioflavin T fluorometry (α-synuclein fibrils [3]; [5]) [%] | % Inhibition α-synuclein (result ± S.D.), Thioflavin T fluorometry (α-synuclein fibrils [3]; [6]) [%] | % Inhibition α-synuclein (result ± S.D.), Thioflavin T fluorometry (α-synuclein fibrils [3]; [7]) [%] | % Inhibition α-synuclein (result ± S.D.), Thioflavin T fluorometry (α-synuclein fibrils [3]; [8]) [%] | % Inhibition Aβ (result ± S.D.), Congo red binding (Aβ 1-42 fibrils [4]; [9]) [%] | % Inhibition Aβ (result ± S.D.), Congo red binding (Aβ 1-42 fibrils [4]; [10]) [%] | % Inhibition Aβ (result ± S.D.), Congo red binding (Aβ 1-42 fibrils [4]; [11]) [%] | % Inhibition Aβ (result ± S.D.), Congo red binding (Aβ 1-42 fibrils [4]; [12]) [%]
O=C(Nc1ccc(O)c(O)c1)c1ccc(O)c(O)c1F [DC-0051-F1, 3,4-Dihydroxy-2-fluoro-N-(3,4-dihydroxyphenyl)benzamide] | 0.0 ± 3.42 | 3.8 ± 5.82 | 32.9±2.97 | 69.8±2.67 | 15.6 ± 2.01 | 37.1 ± 1.44 | 91.3 ± 1.39 | 98.7 ± 0.38 | dose-dependent disruption/disassembly | 13.7 ± 6.06 | 58.4 ± 5.06 | 90.4 ± 2.07 | 100.0 ± 3.14 | 3.7 ± 4.36 | 2.2 ± 7.70 | 27.5±2.39 | 80.1±2.61
O=C(Nc1ccc(O)c(O)c1)c1cc(O)c(O)cc1F [DC-0051-F2, N-(3,4-dihydroxyphenyl)-2-fluoro-4,5-dihydroxy benzamide] | 0.0 ± 6.71 | 3.7 ± 2.83 | 36.5±53.4 | 67.8±3.52 | 17.1 ± 4.32 | 53.7±6.29 | 95.9±0.88 | 99.6 ± 0.55 | dose-dependent disruption/disassembly | 15.9 ± 7.20 | 61.1±1.37 | 94.7±2.57 | 100.0 ± 1.49 | 4.9 ± 7.88 | 0.5 ± 5.24 | 49.9±9.13 | 80.1±3.79
O=C(Nc1ccc(O)c(O)c1)c1cc(O)c(O)c(F)c1 [DC-0051-F3, 4,5-Dihydroxy-3-fluoro-N-(3,4-dihydroxyphenyl)benzamide] | 0.0 ± 3.93 | 2.6 ± 4.90 | 23.3 ± 2.24 | 55.9 ± 2.65 | 15.1 ± 3.81 | 34.6 ± 2.21 | 92.3 ± 0.19 | 99.0 ± 0.77 | dose-dependent disruption/disassembly | 13.8 ± 5.12 | 59.6±6.39 | 92.5±2.35 | 96.8 ± 2.82 | 0.0 ± 2.64 | 0.0 ± 3.25 | 23.3 ± 5.01 | 74.5 ± 2.69

Continued, values first:

% Inhibition α-synuclein (result ± S.D.), Congo red binding (α-synuclein fibrils [1]; [5]) [%] | % Inhibition α-synuclein (result ± S.D.), Congo red binding (α-synuclein fibrils [1]; [6]) [%] | % Inhibition α-synuclein (result ± S.D.), Congo red binding (α-synuclein fibrils [1]; [7]) [%] | % Inhibition α-synuclein (result ± S.D.), Congo red binding (α-synuclein fibrils [1]; [8]) [%] | % Inhibition Aβ (result ± S.D.), Thioflavin T fluorometry (Aβ 1-42 fibrils [2]; [9]) [%] | % Inhibition Aβ (result ± S.D.), Thioflavin T fluorometry (Aβ 1-42 fibrils [2]; [10]) [%] | % Inhibition Aβ (result ± S.D.), Thioflavin T fluorometry (Aβ 1-42 fibrils [2]; [11]) [%] | % Inhibition Aβ (result ± S.D.), Thioflavin T fluorometry (Aβ 1-42 fibrils [2]; [12]) [%] | disruption/disassembly of pre-formed α-synuclein fibrils, in words (α-synuclein fibrils [3]) | % Inhibition α-synuclein (result ± S.D.), Thioflavin T fluorometry (α-synuclein fibrils [3]; [5]) [%] | % Inhibition α-synuclein (result ± S.D.), Thioflavin T fluorometry (α-synuclein fibrils [3]; [6]) [%] | % Inhibition α-synuclein (result ± S.D.), Thioflavin T fluorometry (α-synuclein fibrils [3]; [7]) [%] | % Inhibition α-synuclein (result ± S.D.), Thioflavin T fluorometry (α-synuclein fibrils [3]; [8]) [%] | % Inhibition Aβ (result ± S.D.), Congo red binding (Aβ 1-42 fibrils [4]; [9]) [%] | % Inhibition Aβ (result ± S.D.), Congo red binding (Aβ 1-42 fibrils [4]; [10]) [%] | % Inhibition Aβ (result ± S.D.), Congo red binding (Aβ 1-42 fibrils [4]; [11]) [%] | % Inhibition Aβ (result ± S.D.), Congo red binding (Aβ 1-42 fibrils [4]; [12]) [%] | Structure (SMILES)
6.1 ± 8.92 | 0.0 ± 3.44 | 18.0 ± 0.58 | 64.8 ± 5.08 | 16.0 ± 6.64 | 33.4 ± 2.09 | 79.8 ± 0.77 | 99.7 ± 0.58 | dose-dependent disruption/disassembly | 6.1 ± 9.44 | 40.6 ± 1.49 | 94.3 ± 1.22 | 100.0 ± 2.84 | 4.3 ± 11.81 | 8.8 ± 5.07 | 10.9 ± 5.05 | 71.0 ± 2.39 | O=C(Nc1cc(O)c(O)c(F)c1)c1ccc(O)c(O)c1 [DC-0051-F4, N-(3-fluoro-4,5-dihydroxyphenyl)-3,4-dihydroxybenzamide]
0.0 ± 1.01 | 5.0 ± 5.47 | 32.7 ± 3.96 | 69.4 ± 0.13 | 19.5 ± 1.49 | 43.9±2.01 | 91.8±0.22 | 99.8 ± 0.40 | dose-dependent disruption/disassembly | 5.9 ± 10.41 | 59.0 ± 1.18 | 94.7 ± 1.70 | 98.9 ± 0.65 | 0.0 ± 2.50 | 9.8 ± 2.54 | 25.7 ± 5.69 | 69.9 ± 2.06 | O=C(Nc1cc(O)c(O)cc1F)c1ccc(O)c(O)c1 [DC-0051-F5, N-(2-fluoro-4,5-dihydroxyphenyl)-3,4-dihydroxybenzamide]
